# Results taken from patent publication EP0194571A1, “Heterocyclic disulfides, process for their preparation and pharmaceutical preparations containing them” (HOECHST AKTIENGESELLSCHAFT, priority 1985, dated 1986).
# Legend:
# Candida albicans [1] = assay: Therapeutic treatment of a chronic Candida albicans infection (germ counts in urine and kidneys, kidney necrosis); type: in vivo, Balb/c-Mäuse; details: Tag 30, 60 mg/kg i.p. Tag 3-10
# Protocol: Bei der therapeutischen Behandlung einer chronischen Candida albicans Infektion wurden weibliche Balb/c-Mäuse (15/Gruppe) am Tag 0 intravenös mit Candida albicans (1 x 10^5 CFU/Maus) infiziert. Nach erfolgter Infektion wurden die Tiere an 8 aufeinanderfolgenden Tagen (Tag 3 - 10) mit jeweils 60 mg/kg der Prüfsubstanz (Verbindung nach Ausführungsbeispiel 8) intraperitoneal behandelt. Den Kontrolltieren wurde physiologische Kochsalzlösung injiziert. An den Tagen 8, 14 und 21 wurden den Tieren Urin entnommen und die Keimzahl bestimmt. Am Tag 30 wurden die Tiere getötet und die Keimzahl und die Nekrosenbildung der Nieren bestimmt. Die Tabelle 6 zeigt, daß die Prüfsubstanz bei therapeutischer Gabe deutlich alle Parameter der chronischen Candida albicans Infektion (Keimzahl in Urin und Nieren und Nekrosenbildung) reduziert und damit die Erkrankung therapeutisch beeinflußt. Während bei den Kontrolltieren sich zu einem hohen Prozentsatz Keime im Urin nachweisen lassen, wird bei den behandelten Tieren die Keimzahl signifikant erniedrigt.
# Auch die Keimbesiedlung der Nieren wird durch die Therapie von 63 % auf 27 % reduziert, bei einer gleichzeitigen Verringerung der Nekrosenbildung von 87 % auf 10 %.
# Candida albicans [2] = assay: Resistance against Candida albicans infection, prophylactic treatment, survival time; type: in vivo, Balb/c-Mäuse; details: 2 x 60 mg/kg/Tag intraperitoneal over 4 days, i.v. infection 24 h later with 5 x 10^5 CFU/Maus, control 9,7 Tagen
# Protocol: Balb/c-Mäuse wurden über 4 Tage in einer Dosierung von 2 x 60 mg/kg/Tag intraperitoneal mit der Prüfsubstanz (Verbindung nach Ausführungsbeispiel 8) behandelt. 24 Stunden nach der letzten Gabe der Prüfsubstanz werden diese Tiere und die Kontrolltiere, denen physiologische Kochsalzlösung in gleichen Volumina und Zeitabständen verabreicht worden war, mit Candida albicans intravenös infiziert (5 x 10^5 CFU/Maus). Aus der Absterberate nach der Infektion lassen sich entsprechend die mittleren Überlebenszeiten berechnen. Die Tiere der Kontrollgruppe sterben zu 50 % nach 9,7 Tagen, die mit der Prüfsubstanz behandelte Gruppe zeigte eine mittlere Überlebenszeit von 16,1 Tagen. In dem gewählten Applikationsschema mit den entsprechenden Dosierungen (prophylaktische Verabreichung) induziert die Prüfsubstanz eine signifikante Erhöhung der Resistenz der Balb/c-Maus gegen Candida albicans.
# Wie in Experiment 3a beschrieben, wurden Balb/c-Mäuse mit den erfindungsgemäßen Verbindungen behandelt.
# Wie Tabelle 9 zeigt, steigt die mittlere Überlebenszeit der Mäuse nach C. albicans Infektion, verglichen mit einer unbehandelten Kontrollgruppe, signifikant an.
compound,measurement,setting,value
"Cc1nc(SSc2nc(C)c(CC(=O)O)s2)sc1CC(=O)O [Beispiel 8, Bis-(5-Carboxymethyl-4-methyl-thiazol-2-yl)-disulfid]",Keimbesiedlung der Nieren,Candida albicans [1]; control 63 %,27%
same,Nekrosenbildung,"Candida albicans [1]; kidneys, control 87 %",10%
same,mittlere Überlebenszeit,Candida albicans [2],"16,1 Tagen"
